Experimental data: patent publication EP4725941A1, “ARYLAMIDE DERIVATIVE HAVING ANTITUMOR ACTIVITY” (priority 2020, dated 2021)
Like-named read-outs stand apart in the source and are kept apart here.

Experiments:
BRAF = molecular target: T1, BRAF (Homo sapiens, UniProt P15056); test: BRAF-inhibiting activity, time-resolved fluorescence-fluorescence resonance energy transfer assay; format: biochemical
T1 construct: purchased Eurofins Genomics KK; (BRAF); Thermo Fisher Scientific Inc. (MEK1)
Description: The BRAF-inhibiting activity of the compounds listed in Table 3 below was evaluated by the time-resolved fluorescence-fluorescence resonance energy transfer assay as described below.

NCI-H2122 = test: Cell proliferation-inhibiting activity (ATP in viable cells, CellTiter-Glo), NCI-H2122; format: cell-based, human; details: NCI-H2122, 96 h, read-out: NCI-H2122 IC50
Calu-6 = test: Cell proliferation-inhibiting activity (ATP in viable cells, CellTiter-Glo), Calu-6; format: cell-based, human; details: Calu-6, 96 h, read-out: Calu-6 IC50
[1] = Human liver microsome stability; format: in vitro ADME; details: human liver microsomes, pH 7.4
MEK1 = molecular target: T2, MEK1 (Homo sapiens, UniProt Q02750); test: MEK1-inhibiting activity, fluorescent polarization method (CRAF/MEK1/ERK2 cascade, IMAP); format: biochemical; details: Table 3; read-out: MEK1 IC50
T2 construct: purchased Thermo Fisher Scientific Inc. (MEK1, CRAF); Carna Biosciences, Inc. (ERK2)
T2 sequence (Q02750 whole entry): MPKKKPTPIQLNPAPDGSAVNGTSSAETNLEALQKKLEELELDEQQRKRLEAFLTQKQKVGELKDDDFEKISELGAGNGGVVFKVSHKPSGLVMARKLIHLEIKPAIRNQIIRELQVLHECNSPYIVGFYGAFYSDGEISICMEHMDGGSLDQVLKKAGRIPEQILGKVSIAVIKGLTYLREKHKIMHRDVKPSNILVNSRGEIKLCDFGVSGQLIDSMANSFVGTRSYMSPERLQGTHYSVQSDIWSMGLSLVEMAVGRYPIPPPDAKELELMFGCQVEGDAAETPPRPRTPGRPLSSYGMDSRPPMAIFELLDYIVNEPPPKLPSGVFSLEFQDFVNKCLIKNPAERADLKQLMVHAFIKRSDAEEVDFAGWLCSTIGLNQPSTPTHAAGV
Description: The MEK1-inhibiting activity of the compounds listed in Table 3 below were evaluated by the fluorescent polarization method as described below.

[2] = human lung cancer cells, 4 days

T1 sequence (P15056 417-766 limits assumed): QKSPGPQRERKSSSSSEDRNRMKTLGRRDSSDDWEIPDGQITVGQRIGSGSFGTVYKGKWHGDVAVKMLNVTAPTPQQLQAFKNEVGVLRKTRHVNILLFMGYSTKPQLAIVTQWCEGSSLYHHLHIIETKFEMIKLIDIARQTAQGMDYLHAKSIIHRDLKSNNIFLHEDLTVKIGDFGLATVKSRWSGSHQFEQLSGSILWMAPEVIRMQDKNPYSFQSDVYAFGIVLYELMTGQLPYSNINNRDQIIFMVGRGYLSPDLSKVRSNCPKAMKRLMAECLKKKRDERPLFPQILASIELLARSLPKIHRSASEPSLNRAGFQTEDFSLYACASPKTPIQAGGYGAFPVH

| SMILES | IC50 (BRAF; read-out: BRAF IC50; Table 3) [nM] | IC50 (NCI-H2122; [2]) [nM] | IC50 (Calu-6; [2]) [nM] | microsomal CLint at 0.99 µM [1] [µL/min/mg] | IC50 (MEK1) [nM] | IC50 (BRAF; Table 3; read-out: BRAF IC50) [nM] | IC50 (NCI-H2122; Homo sapiens) [nM] | IC50 (Calu-6; Homo sapiens) [nM] |
| --- | --- | --- | --- | --- | --- | --- | --- | --- |
| CS(=O)(=O)Nc1nccc(Cc2cc(C(=O)NC3CC3)c(Nc3ccc(I)cc3F)c(F)c2F)c1F [Compound B-14, N-Cyclopropyl-3,4-difluoro-2-(2-fluoro-4-iodoanilino)-5-[[3-fluoro-2-(methanesulfonamide)pyridin-4-yl]methyl]benzamide] | 13 | 11 | 74 | 4 | 104 |  |  |  |
| CONC(=O)c1cc(Cc2ccnc(NS(C)(=O)=O)c2F)c(F)c(F)c1Nc1ccc(I)cc1F [Compound B-15, 3,4-Difluoro-2-(2-fluoro-4-iodoanilino)-5-[[3-fluoro-2-(methanesulfonamide)pyridin-4-yl]methyl]-N-methoxybenzamide] | 4 | 6 | 60 | 13 | 8 |  |  |  |
| CCS(=O)(=O)Nc1nccc(Cc2cc(C(=O)NOC)c(Nc3ccc(I)cc3F)c(F)c2F)c1F [Compound B-16, 5-[[2-(ethylsulfonylamino)-3-fluoropyridin-4-yl]methyl]-3,4-difl uoro-2-(2-fluoro-4-iodoanilino)-N-methoxybenzamide] | 12 | 1 | 9 | 10 | 4 |  |  |  |
| CC1(NS(=O)(=O)Nc2cccc(Cc3cc(C(N)=O)c(Nc4ccc(I)cc4F)c(F)c3F)c2F)CCC1 [Compound D-9, 3,4-Difluoro-2-(2-fluoro-4-iodoanilino)-5-[[2-fluoro-3-[(1-methylcyclobutyl)sulfamoylamino]phenyl]methyl]benzamide] | 24 | 3 | 28 | 53 | 252 |  |  |  |
| CNS(=O)(=O)Nc1cccc(Cc2cc(C(=O)NOC)c(Nc3ccc(I)cc3F)c(F)c2F)c1F [Compound D-11, 3,4-Difluoro-2-(2-fluoro-4-iodoanilino)-5-[[2-fluoro-3-(methylsulfamoylamino)phenyl]methyl]-N-methoxybenzamide] | 3 | 0.3 | 2 | 24 | 6 |  |  |  |
| CONC(=O)c1cc(Cc2cccc(NS(N)(=O)=O)c2F)c(F)c(F)c1Nc1ccc(I)cc1F [Compound D-12, 3,4-Difluoro-2-(2-fluoro-4-iodoanilino)-5-[[2-fluoro-3-(sulfamoylamino)phenyl]methyl]-N-methoxybenzamide] | 14 | 0.4 | 6 | 18 | 15 |  |  |  |
| CONC(=O)c1cc(Cc2cccc(NS(=O)(=O)NC3(C)CCC3)c2F)c(F)c(F)c1Nc1ccc(I)cc1F [Compound D-13, 3,4-Difluoro-2-(2-fluoro-4-iodoanilino)-5-[[2-fluoro-3-[(1-methylcyclobutyl)sulfamoylamino]phenyl]methyl]-N-methoxybenzamide] | 18 | 1 | 6 | 88 | 29 |  |  |  |
| CNS(=O)(=O)Nc1cccc(Cc2cc(C(N)=O)c(Nc3ccc(C4CC4)cc3F)c(F)c2F)c1F [Compound D-14, 2-(4-Cyclopropyl-2-fluoroanilino)-3,4-difluoro-5-[[2-fluoro-3-(methylsulfamoylamino)phenyl]methyl]benzamide] |  |  |  | 15 | 1600 | 7 | 10 | 117 |
| CNS(=O)(=O)Nc1cccc(Cc2cc(C(=O)NOC)c(Nc3ccc(C4CC4)cc3F)c(F)c2F)c1F [Compound D-16, 2-(4-Cyclopropyl-2-fluoroanilino)-3,4-difluoro-5-[[2-fluoro-3-(methylsulfamoylamino)phenyl]methyl]-N-methoxybenzamide] |  |  |  | 51 | 48 | 6 | 1 | 17 |
| CONC(=O)c1cc(Cc2cccc(NS(C)(=O)=O)c2F)c(F)c(F)c1Nc1ccc(I)cc1F [Compound E-26, 3,4-Difluoro-2-(2-fluoro-4-iodoanilino)-5-[[2-fluoro-3-(methanesulfonamide)phenyl]methyl]-N-methoxybenzamide] | 6 | 0.6 | 5 | 13 | 13 |  |  |  |
| CC1(NS(=O)(=O)Nc2nccc(Cc3cc(C(=O)NC4CC4)c(Nc4ccc(C5CC5)cc4F)c(F)c3F)c2F)CCC1 [Compound G-5] |  |  |  | 86 | 751 | 78 | 57 | 374 |
| CONC(=O)c1cc(Cc2ccnc(NS(=O)(=O)NC3(C)CCC3)c2F)c(F)c(F)c1Nc1ccc(C2CC2)cc1F [Compound G-6, 2-(4-Cyclopropyl-2-fluoroanilino)-3,4-difluoro-5-[[3-fluoro-2-[(1-methylcyclobutyl)sulfamoylamino]pyridin-4-yl]methyl]-N-methoxybenzamide] | 15 | 2 | 23 | 57 | 32 |  |  |  |
| CCS(=O)(=O)Nc1nccc(Cc2cc(C(=O)NOC)c(Nc3ccc(C4CC4)cc3F)c(F)c2F)c1F [Compound G-8, 2-(4-Cyclopropyl-2-fluoroanilino)-5-[[2-(ethylsulfonylamino)-3-fluoropyridin-4-yl]methyl]-3,4-difluoro-N-methoxybenzamide] |  |  |  | 26 | 53 | 7 | 25 | 232 |
| CONC(=O)c1cc(Cc2ccnc(NS(C)(=O)=O)c2F)c(F)c(F)c1Nc1ccc(C2CC2)cc1F [Compound G-9, 2-(4-Cyclopropyl-2-fluoroanilino)-3,4-difluoro-5-[[3-fluoro-2-(methanesulfonamide)pyridin-4-yl]methyl]-N-methoxybenzamide] |  |  |  | 22 | 230 | 13 | 67 | 444 |
| COCCNS(=O)(=O)Nc1nccc(Cc2cc(C(=O)NC3CC3)c(Nc3ccc(I)cc3F)n(C)c2=O)c1F [Compound J-7, N-Cyclopropyl-2-(2-fluoro-4-iodoanilino)-5-[[3-fluoro-2-(2-methoxyethylsulfamoylamino)pyridin-4-yl]methyl]-1-methyl-6-oxopyridine-3-car boxamide] | 12 | 29 | 380 | 30 | 627 |  |  |  |
| CCS(=O)(=O)Nc1nccc(Cn2cc(C(=O)NC3CC3)c(Nc3ccc(I)cc3F)c(C)c2=O)c1F [Compound P-4, N-Cyclopropyl-1-[[2-(ethylsulfonylamino)-3-fluoropyridin-4-yl]methyl]-4-(2-fluoro-4-iodoanilino)-5-methyl-6-oxopyridine-3-carboxamide] | 16 | 24 | 45 | 1 | 34 |  |  |  |
| CNS(=O)(=O)Nc1nccc(Cn2cc(C(=O)NC3CC3)c(Nc3ccc(I)cc3F)c(C)c2=O)c1F [Compound P-6, N-Cyclopropyl-4-(2-fluoro-4-iodoanilino)-1-[[3-fluoro-2-(methylsulfamoylamino)pyridin-4-yl]methyl]-5-methyl-6-oxopyridine-3-carboxamide] | 9 | 4 | 8 | 4 | 13 |  |  |  |
